We go through 14 molecules from the supplement of paper PMC11061612.

SMILES strings stand for the structures.

What all share (test): combination Emax (second highest fraction inhibited in the dose matrix, 72 h); higher = more inhibition; extreme values may be limits of the assay
The test system of one assay is A375 (Melanoma). A digest of the protocol:
(§1)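 Bliss excess equals the observed combination effect minus the expected value EA + EB − EA·EB, where EA and EB are the effects of each agent alone. Combination Emax is the second-highest inhibition within the matrix. Inhibition was scaled from CellTiter-Glo 2.0 luminescence, with 0 set by vehicle wells and 1 by blank wells, after 72 hours of two-drug dosing of cells plated in 1536-well plates.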

The test system of another assay is NCI-H2452 (Mesothelioma). In outline:
as §1

In assay [1] the test system is KNS-62 (Squamous Cell Lung Carcinoma). In outline:
as §1

The test system of assay [2] is SW1463 (Colorectal Carcinoma). In outline:
as §1

For assay [3], the system named is COR-L105 (Lung Adenocarcinoma). A digest of the protocol: as §1
In assay [4] the test system is SBC-3 (Small Cell Lung Carcinoma). A digest of the protocol:
as §1

In assay [5] the test system is OVKATE (Ovarian Carcinoma). A digest of the protocol: as §1
The test system of assay [6] is NCI-H1648 (Lung Adenocarcinoma). In outline:
as §1

The test system of assay [7] is CAL-85-1 (Breast Carcinoma). A digest of the protocol:
as §1

A further assay has as its system MG-63 (Osteosarcoma). A digest of the protocol:
as §1

For assay [8], the system named is SCC90 (Head and Neck Carcinoma). A digest of the protocol: as §1
The subject of assay [9] is SBC-5 (Small Cell Lung Carcinoma). In outline: as §1

Turning to `C[C@@H]1COCCN1c1cc(C2([S@](C)(=N)=O)CC2)nc(-c2ccnc3[nH]ccc23)n1` [AZD6738] + C1CC(C1)(C(=O)[O-])C(=O)[O-].N.N.[Pt+2] [Carboplatin] (first compound max 10 µM, 7x7, partner max 10 µM), the “combination Emax” value was 0.521 in the assay on A375 (Melanoma); 0.432 in the assay on NCI-H2452 (Mesothelioma); 0.438 in [1]; 0.409 in assay [2]; 0.323 in assay [3]; 0.647 in [4]. Further, the “combination Emax” value in assay [5] amounted to 0.211; in assay [6] it was 0.571; in assay [7] it was 0.382; with MG-63 (Osteosarcoma) it was 0.524.
With `O=C(c1cc(Cc2n[nH]c(=O)c3ccccc23)ccc1F)N1CCN(C(=O)C2CC2)CC1` [Olaparib] + CN(CC[C@H](CSC1=CC=CC=C1)NC2=C(C=C(C=C2)S(=O)(=O)NC(=O)C3=CC=C(C=C3)N4CCC(CC4)[C@H](C5=CC=CC=C5C6=CC=C(C=C6)Cl)O)S(=O)(=O)C(F)(F)F)CCO [AZD4320] (first compound max 10 µM, 7x7, partner max 1 µM), the “combination Emax” value was 0.24 in the assay with A375 (Melanoma); 0.182 in the assay on NCI-H2452 (Mesothelioma); 0.153 in assay [1]; 0.333 in assay [2]; 0.219 in [3]; 0.842 in [4]. Moreover, the “combination Emax” value in assay [5] turned out to be 0.168; in assay [6] it was 0.359; in [7] it was 0.342; in the assay on MG-63 (Osteosarcoma), 0.332.
Take `CS(=O)(=O)CCNCc1ccc(-c2ccc3ncnc(Nc4ccc(OCc5cccc(F)c5)c(Cl)c4)c3c2)o1` [Lapatinib] + NC1(c2ccc(-c3nc4ccn5c(=O)[nH]nc5c4cc3-c3ccccc3)cc2)CCC1 [MK-2206] (first compound max 10 µM, 7x7, partner max 10 µM): the “combination Emax” value with A375 (Melanoma) came to 0.89; in the assay with NCI-H2452 (Mesothelioma), 0.554; in assay [1], 0.721; in [8], 0.962; in assay [2] it was 0.868; in assay [3], 0.825. Also, the “combination Emax” value turned out to be 0.917 in assay [4]; 0.853 in assay [9]; 0.537 in [5]; 0.99 in assay [6]; 0.9 in [7]; 0.924 in the assay on MG-63 (Osteosarcoma).
As for `Cc1c2c(nn1C)CSCc1cc(n(C)n1)CSc1cc(c3ccccc3c1)OCCCc1c(C(=O)O)n(C)c3c-2c(Cl)ccc13` [AZD5991] + CC(=O)O[C@H]1C(=O)[C@@]2(C)[C@H]([C@H](OC(=O)c3ccccc3)[C@]3(O)C[C@H](OC(=O)[C@H](O)[C@@H](NC(=O)c4ccccc4)c4ccccc4)C(C)=C1C3(C)C)[C@]1(OC(C)=O)CO[C@@H]1C[C@@H]2O [Paclitaxel] (first compound max 1 µM, 7x7, partner max 3 µM), the “combination Emax” value stood at 0.787 with A375 (Melanoma); 0.838 in the assay on NCI-H2452 (Mesothelioma); 0.6 in [1]; 0.527 in assay [2]; 0.183 in [3]; 0.952 in [4]. For the same molecule, the “combination Emax” value came out at 0.217 in [5], 0.929 in [6], 0.806 in assay [7] and 0.88 in the assay with MG-63 (Osteosarcoma).
With `C[C@@H](Nc1cc(F)cc(F)c1)c1cc(C(=O)N(C)C)cc2c(=O)cc(N3CCOCC3)oc12` [AZD8186] + CC(=O)c1c(C)c2cnc(Nc3ccc(N4CCNCC4)cn3)nc2n(C2CCCC2)c1=O [Palbociclib] (first compound max 10 µM, 7x7, partner max 10 µM), the “combination Emax” value in the assay with A375 (Melanoma) stood at 0.42; in the assay with NCI-H2452 (Mesothelioma), 0.417; in assay [1], 0.358; in [2], 0.722; in [3], 0.392; in assay [4], 0.709. The “combination Emax” value was found to be 0.264 in [5], 0.579 in [6], 0.164 in [7] and 0.633 in the assay with MG-63 (Osteosarcoma).
Take `CS(=O)(=O)CCNCc1ccc(-c2ccc3ncnc(Nc4ccc(OCc5cccc(F)c5)c(Cl)c4)c3c2)o1` [Lapatinib] + Cn1cnc2c(F)c(Nc3ccc(Br)cc3Cl)c(C(=O)NOCCO)cc21 [Selumetinib] (first compound max 10 µM, 7x7, partner max 10 µM): the “combination Emax” value is 0.736 in the assay on A375 (Melanoma); 0.466 in the assay on NCI-H2452 (Mesothelioma); 0.626 in assay [1]; 0.868 in [2]; 0.682 in [3]; 0.321 in [4]. For the same molecule, the “combination Emax” value turned out to be 0.31 in assay [5], 0.764 in assay [6], 0.85 in assay [7] and 0.453 in the assay with MG-63 (Osteosarcoma).
`CN(CCO)CC[C@H](CSc1ccccc1)Nc1ccc(S(=O)(=O)NC(=O)c2ccc(N3CCC([C@@H](O)c4ccccc4-c4ccc(Cl)cc4)CC3)cc2)cc1S(=O)(=O)C(F)(F)F` [AZD4320] + CS(=O)(=O)CCNCc1ccc(-c2ccc3ncnc(Nc4ccc(OCc5cccc(F)c5)c(Cl)c4)c3c2)o1 [Lapatinib] (first compound max 1 µM, 7x7, partner max 10 µM): the “combination Emax” value with A375 (Melanoma) was determined as 0.413; in the assay with NCI-H2452 (Mesothelioma), 0.581; in assay [1] it was 0.291; in [2] it was 0.974; in assay [3], 0.917; in [4], 0.407. For the same molecule, the “combination Emax” value was determined as 0.677 in assay [5], 0.952 in [6], 0.957 in [7] and 0.596 in the assay on MG-63 (Osteosarcoma).
Regarding `C[C@@H](Nc1cc(F)cc(F)c1)c1cc(C(=O)N(C)C)cc2c(=O)cc(N3CCOCC3)oc12` [AZD8186] + C1CN(CCC1(C(=O)N[C@@H](CCO)C2=CC=C(C=C2)Cl)N)C3=NC=NC4=C3C=CN4 [AZD5363] (first compound max 10 µM, 7x7, partner max 10 µM), the “combination Emax” value in the assay on A375 (Melanoma) was 0.232; in the assay on NCI-H2452 (Mesothelioma) it was 0.336; in assay [1], 0.533; in assay [2], 0.274; in assay [3] it was 0.41; in [4], 0.446. Further, the “combination Emax” value in assay [5] was determined as 0.252; in [6], 0.707; in [7] it was 0.214; in the assay on MG-63 (Osteosarcoma), 0.694.
Regarding `O=C(c1cc(Cc2n[nH]c(=O)c3ccccc23)ccc1F)N1CCN(C(=O)C2CC2)CC1` [Olaparib] + Cc1c2c(nn1C)CSCc1cc(n(C)n1)CSc1cc(c3ccccc3c1)OCCCc1c(C(=O)O)n(C)c3c-2c(Cl)ccc13 [AZD5991] (first compound max 10 µM, 7x7, partner max 1 µM), the “combination Emax” value in the assay on A375 (Melanoma) was found to be 0.163; with NCI-H2452 (Mesothelioma), 0.165; in assay [1], 0.128; in assay [2], 0.192; in assay [3] it was 0.0887; in [4], 0.523. For the same molecule, the “combination Emax” value in [5] came to 0.0781; in assay [6], 0.384; in assay [7] it was 0.168; in the assay with MG-63 (Osteosarcoma), 0.216.
Take `Cc1c2c(nn1C)CSCc1cc(n(C)n1)CSc1cc(c3ccccc3c1)OCCCc1c(C(=O)O)n(C)c3c-2c(Cl)ccc13` [AZD5991] + CS(=O)(=O)CCNCc1ccc(-c2ccc3ncnc(Nc4ccc(OCc5cccc(F)c5)c(Cl)c4)c3c2)o1 [Lapatinib] (first compound max 1 µM, 7x7, partner max 10 µM): the “combination Emax” value in the assay on A375 (Melanoma) amounted to 0.318; with NCI-H2452 (Mesothelioma), 0.414; in [1] it was 0.213; in [2] it was 0.51; in assay [3] it was 0.688; in assay [4], 0.28. Besides, the “combination Emax” value in assay [5] was 0.307; in assay [6], 0.895; in assay [7] it was 0.825; in the assay on MG-63 (Osteosarcoma), 0.157.
Turning to `C=CCn1c(=O)c2cnc(Nc3ccc(N4CCN(C)CC4)cc3)nc2n1-c1cccc(C(C)(C)O)n1` [AZD1775] + CCc1c2c(nc3ccc(O)cc13)-c1cc3c(c(=O)n1C2)COC(=O)[C@]3(O)CC [SN-38] (first compound max 1 µM, partner max 0.3 µM), the “combination Emax” value stood at 0.925 in the assay on A375 (Melanoma); 0.675 with NCI-H2452 (Mesothelioma); 0.836 in assay [1]; 0.587 in assay [2]; 0.478 in assay [3]; 0.946 in assay [4]. The “combination Emax” value in [5] is 0.336; in assay [6], 0.842; in [7] it was 0.799; in the assay on MG-63 (Osteosarcoma), 0.968.
Regarding `Cc1c2c(nn1C)CSCc1cc(n(C)n1)CSc1cc(c3ccccc3c1)OCCCc1c(C(=O)O)n(C)c3c-2c(Cl)ccc13` [AZD5991] + Nc1ccn([C@@H]2O[C@H](CO)[C@@H](O)C2(F)F)c(=O)n1 [Gemcitabine] (first compound max 1 µM, 7x7, partner max 0.3 µM), the “combination Emax” value in the assay on A375 (Melanoma) is 0.961; with NCI-H2452 (Mesothelioma), 0.319; in assay [1], 0.413; in assay [2], 0.516; in assay [3] it was 0.377; in assay [4] it was 0.962. The “combination Emax” value came to 0.165 in assay [5], 0.5 in [6], 0.558 in assay [7] and 0.82 in the assay with MG-63 (Osteosarcoma).
In the case of `C[C@@H](Oc1cc(-c2cnn(C3CCNCC3)c2)cnc1N)c1c(Cl)ccc(F)c1Cl` [Crizotinib] + Cn1cnc2c(F)c(Nc3ccc(Br)cc3Cl)c(C(=O)NOCCO)cc21 [Selumetinib] (first compound max 10 µM, 7x7, partner max 10 µM), the “combination Emax” value in the assay with A375 (Melanoma) was determined as 0.938; with NCI-H2452 (Mesothelioma), 0.551; in assay [1] it was 0.369; in assay [2] it was 0.622; in [3] it was 0.472; in assay [4], 0.97. The “combination Emax” value worked out at 0.193 in [5], 0.58 in assay [6], 0.412 in [7] and 0.672 in the assay with MG-63 (Osteosarcoma).
Regarding `O=C(c1cc(Cc2n[nH]c(=O)c3ccccc23)ccc1F)N1CCN(C(=O)C2CC2)CC1` [Olaparib] + CC1(C)CCC(CN2CCN(c3ccc(C(=O)NS(=O)(=O)c4ccc(NCC5CCOCC5)c([N+](=O)[O-])c4)c(Oc4cnc5[nH]ccc5c4)c3)CC2)=C(c2ccc(Cl)cc2)C1 [Venetoclax] (first compound max 10 µM, 7x7, partner max 1 µM), the “combination Emax” value in the assay on A375 (Melanoma) was found to be 0.176; in the assay on NCI-H2452 (Mesothelioma), 0.143; in assay [1] it was 0.147; in [2], 0.229; in [3] it was 0.128; in assay [4] it was 0.665. Also, the “combination Emax” value in assay [5] was determined as 0.122; in assay [6] it was 0.118; in [7], 0.239; in the assay with MG-63 (Osteosarcoma) it was 0.299.
